Data from paper PMC8401933 (Molecules, 2021).

Assays:
Test in all cases: KINOMEscan binding
DMPK = target: T1, DMPK (Homo sapiens, UniProt Q09013); details: read-out: Percent Control
T1 construct: purchased Eurofins DiscoverX KINOMEscan

FLT3(R834Q) = target: T2, FLT3(R834Q) (Homo sapiens, UniProt P36888, R834Q); details: read-out: Percent Control
T2 construct: purchased Eurofins DiscoverX KINOMEscan

PFTAIRE2 = target: T3, PFTAIRE2 (Homo sapiens, UniProt Q96Q40); details: read-out: Percent Control
T3 construct: purchased Eurofins DiscoverX KINOMEscan
T3 sequence (Q96Q40 whole entry): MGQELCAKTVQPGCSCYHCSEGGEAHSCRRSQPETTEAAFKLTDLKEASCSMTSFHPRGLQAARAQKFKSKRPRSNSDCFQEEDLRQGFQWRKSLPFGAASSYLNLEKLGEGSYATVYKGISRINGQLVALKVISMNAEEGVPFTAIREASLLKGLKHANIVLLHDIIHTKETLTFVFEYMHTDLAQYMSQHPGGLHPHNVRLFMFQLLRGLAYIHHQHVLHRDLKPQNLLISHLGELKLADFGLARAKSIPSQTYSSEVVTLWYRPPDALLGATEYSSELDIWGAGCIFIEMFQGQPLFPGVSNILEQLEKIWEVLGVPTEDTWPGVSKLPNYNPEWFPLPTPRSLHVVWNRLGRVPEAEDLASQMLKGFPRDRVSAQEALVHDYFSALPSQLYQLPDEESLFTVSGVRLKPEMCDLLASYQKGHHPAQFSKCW

CDK4-cyclinD1 = target: T4, CDK4-cyclinD1 (Homo sapiens, UniProt P11802); details: read-out: Percent Control
T4 construct: purchased Eurofins DiscoverX KINOMEscan

PRKCQ = target: T5, PRKCQ (Homo sapiens, UniProt Q04759); details: read-out: Percent Control
T5 construct: purchased Eurofins DiscoverX KINOMEscan

p38-beta = target: T6, p38-beta (Homo sapiens, UniProt Q15759); details: read-out: Percent Control
T6 construct: purchased Eurofins DiscoverX KINOMEscan

DMPK2 = target: T7, DMPK2 (Homo sapiens, UniProt Q6DT37); details: read-out: Percent Control
T7 construct: purchased Eurofins DiscoverX KINOMEscan

AXL = target: T8, AXL (Homo sapiens, UniProt P30530); details: read-out: Percent Control
T8 construct: purchased Eurofins DiscoverX KINOMEscan

ZAP70 = target: T9, ZAP70 (Homo sapiens, UniProt P43403); details: read-out: Percent Control
T9 construct: purchased Eurofins DiscoverX KINOMEscan

MYLK4 = target: T10, MYLK4 (Homo sapiens, UniProt Q86YV6); details: read-out: Percent Control
T10 construct: purchased Eurofins DiscoverX KINOMEscan

PIM3 = target: T11, PIM3 (Homo sapiens, UniProt Q86V86); details: read-out: Percent Control
T11 construct: purchased Eurofins DiscoverX KINOMEscan

CDC2L1 = target: T12, CDC2L1 (Homo sapiens, UniProt P21127); details: read-out: Percent Control
T12 construct: purchased Eurofins DiscoverX KINOMEscan

[1] = target: T13, ABL1(Y253F)-phosphorylated (Homo sapiens, UniProt P00519, Y253F); details: read-out: Percent Control
T13 construct: purchased Eurofins DiscoverX KINOMEscan

PRKD1 = target: T14, PRKD1 (Homo sapiens, UniProt Q15139); details: read-out: Percent Control
T14 construct: purchased Eurofins DiscoverX KINOMEscan
T14 sequence (Q15139 whole entry): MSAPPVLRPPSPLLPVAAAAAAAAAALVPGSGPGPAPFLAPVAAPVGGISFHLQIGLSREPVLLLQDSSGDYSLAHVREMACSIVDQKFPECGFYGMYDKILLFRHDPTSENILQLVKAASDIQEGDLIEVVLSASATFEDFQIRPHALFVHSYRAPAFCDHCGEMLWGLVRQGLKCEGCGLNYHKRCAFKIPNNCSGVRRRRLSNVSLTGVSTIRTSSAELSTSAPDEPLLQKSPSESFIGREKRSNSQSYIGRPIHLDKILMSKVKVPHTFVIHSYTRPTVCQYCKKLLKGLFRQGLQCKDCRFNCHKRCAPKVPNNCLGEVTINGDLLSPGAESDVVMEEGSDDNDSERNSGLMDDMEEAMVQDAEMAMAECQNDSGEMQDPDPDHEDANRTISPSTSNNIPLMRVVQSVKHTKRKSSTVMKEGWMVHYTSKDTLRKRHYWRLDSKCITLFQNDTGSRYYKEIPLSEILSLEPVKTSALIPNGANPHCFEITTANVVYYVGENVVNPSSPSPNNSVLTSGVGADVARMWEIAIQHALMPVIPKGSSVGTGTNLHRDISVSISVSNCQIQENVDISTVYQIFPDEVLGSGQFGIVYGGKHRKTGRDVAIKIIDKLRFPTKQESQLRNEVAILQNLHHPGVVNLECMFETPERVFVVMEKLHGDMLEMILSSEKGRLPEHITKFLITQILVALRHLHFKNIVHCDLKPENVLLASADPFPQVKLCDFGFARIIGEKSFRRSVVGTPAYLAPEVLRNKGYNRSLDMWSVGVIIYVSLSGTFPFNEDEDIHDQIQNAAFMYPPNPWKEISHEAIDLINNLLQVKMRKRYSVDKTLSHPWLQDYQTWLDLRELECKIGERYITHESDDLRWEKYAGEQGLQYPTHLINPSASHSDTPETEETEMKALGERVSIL

CSNK1A1L = target: T15, CSNK1A1L (Homo sapiens, UniProt Q8N752); details: read-out: Percent Control
T15 construct: purchased Eurofins DiscoverX KINOMEscan

CASK = target: T16, CASK (Homo sapiens, UniProt O14936); details: read-out: Percent Control
T16 construct: purchased Eurofins DiscoverX KINOMEscan

PIP5K1C = target: T17, PIP5K1C (Homo sapiens, UniProt O60331); details: read-out: Percent Control
T17 construct: purchased Eurofins DiscoverX KINOMEscan

BUB1 = target: T18, BUB1 (Homo sapiens, UniProt O43683); details: read-out: Percent Control
T18 construct: purchased Eurofins DiscoverX KINOMEscan

MAP3K2 = target: T19, MAP3K2 (Homo sapiens, UniProt Q9Y2U5); details: read-out: Percent Control
T19 construct: purchased Eurofins DiscoverX KINOMEscan

HIPK3 = target: T20, HIPK3 (Homo sapiens, UniProt Q9H422); details: read-out: Percent Control
T20 construct: purchased Eurofins DiscoverX KINOMEscan

TESK1 = target: T21, TESK1 (Homo sapiens, UniProt Q15569); details: read-out: Percent Control
T21 construct: purchased Eurofins DiscoverX KINOMEscan

PRKG1 = target: T22, PRKG1 (Homo sapiens, UniProt Q13976); details: read-out: Percent Control
T22 construct: purchased Eurofins DiscoverX KINOMEscan

MLK2 = target: T23, MLK2 (Homo sapiens, UniProt Q02779); details: read-out: Percent Control
T23 construct: purchased Eurofins DiscoverX KINOMEscan
T23 sequence (Q02779 whole entry): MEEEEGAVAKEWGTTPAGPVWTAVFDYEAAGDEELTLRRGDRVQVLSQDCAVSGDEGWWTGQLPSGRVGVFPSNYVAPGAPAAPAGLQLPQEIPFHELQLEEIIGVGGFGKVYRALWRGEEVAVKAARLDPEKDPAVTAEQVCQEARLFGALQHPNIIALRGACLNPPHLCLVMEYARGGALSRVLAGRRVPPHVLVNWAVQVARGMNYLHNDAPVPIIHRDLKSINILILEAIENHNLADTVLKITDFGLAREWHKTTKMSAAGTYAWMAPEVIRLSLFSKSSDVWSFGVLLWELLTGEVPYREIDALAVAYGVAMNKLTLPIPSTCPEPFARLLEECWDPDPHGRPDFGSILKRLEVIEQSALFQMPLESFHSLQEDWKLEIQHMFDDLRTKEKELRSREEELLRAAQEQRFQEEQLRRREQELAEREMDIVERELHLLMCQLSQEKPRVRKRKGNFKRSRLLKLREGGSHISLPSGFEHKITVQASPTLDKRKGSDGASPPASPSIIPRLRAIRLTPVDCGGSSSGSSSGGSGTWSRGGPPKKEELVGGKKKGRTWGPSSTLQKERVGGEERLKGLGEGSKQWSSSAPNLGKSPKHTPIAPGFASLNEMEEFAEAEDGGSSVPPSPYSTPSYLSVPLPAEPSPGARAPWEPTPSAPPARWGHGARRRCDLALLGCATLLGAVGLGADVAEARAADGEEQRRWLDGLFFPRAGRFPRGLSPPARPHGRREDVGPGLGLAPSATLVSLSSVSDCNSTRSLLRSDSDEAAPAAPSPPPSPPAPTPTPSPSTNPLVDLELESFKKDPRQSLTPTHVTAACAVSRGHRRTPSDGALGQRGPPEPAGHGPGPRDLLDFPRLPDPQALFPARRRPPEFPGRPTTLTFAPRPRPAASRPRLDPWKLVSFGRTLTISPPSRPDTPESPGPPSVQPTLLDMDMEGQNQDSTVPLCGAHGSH

FGFR1 = target: T24, FGFR1 (Homo sapiens, UniProt P11362); details: read-out: Percent Control
T24 construct: purchased Eurofins DiscoverX KINOMEscan

[2] = target: T25, ABL1(T315I)-phosphorylated (Homo sapiens, UniProt P00519, T315I); details: read-out: Percent Control
T25 construct: purchased Eurofins DiscoverX KINOMEscan

GRK3 = target: T26, GRK3 (Homo sapiens, UniProt P35626); details: read-out: Percent Control
T26 construct: purchased Eurofins DiscoverX KINOMEscan

SgK110 = target: T27, SgK110 (Homo sapiens, UniProt P0C264); details: read-out: Percent Control
T27 construct: purchased Eurofins DiscoverX KINOMEscan

MKK7 = target: T28, MKK7 (Homo sapiens, UniProt O14733); details: read-out: Percent Control
T28 construct: purchased Eurofins DiscoverX KINOMEscan

CSNK2A2 = target: T29, CSNK2A2 (Homo sapiens, UniProt P19784); details: read-out: Percent Control
T29 construct: purchased Eurofins DiscoverX KINOMEscan

DRAK2 = target: T30, DRAK2 (Homo sapiens, UniProt O94768); details: read-out: Percent Control
T30 construct: purchased Eurofins DiscoverX KINOMEscan

CSNK1G3 = target: T31, CSNK1G3 (Homo sapiens, UniProt Q9Y6M4); details: read-out: Percent Control
T31 construct: purchased Eurofins DiscoverX KINOMEscan

MLCK = target: T32, MLCK (Homo sapiens, UniProt Q32MK0); details: read-out: Percent Control
T32 construct: purchased Eurofins DiscoverX KINOMEscan

DLK = target: T33, DLK (Homo sapiens, UniProt Q12852); details: read-out: Percent Control
T33 construct: purchased Eurofins DiscoverX KINOMEscan

ROCK1 = target: T34, ROCK1 (Homo sapiens, UniProt Q13464)
T34 construct: purchased Eurofins DiscoverX KINOMEscan
T34 sequence (Q13464 whole entry): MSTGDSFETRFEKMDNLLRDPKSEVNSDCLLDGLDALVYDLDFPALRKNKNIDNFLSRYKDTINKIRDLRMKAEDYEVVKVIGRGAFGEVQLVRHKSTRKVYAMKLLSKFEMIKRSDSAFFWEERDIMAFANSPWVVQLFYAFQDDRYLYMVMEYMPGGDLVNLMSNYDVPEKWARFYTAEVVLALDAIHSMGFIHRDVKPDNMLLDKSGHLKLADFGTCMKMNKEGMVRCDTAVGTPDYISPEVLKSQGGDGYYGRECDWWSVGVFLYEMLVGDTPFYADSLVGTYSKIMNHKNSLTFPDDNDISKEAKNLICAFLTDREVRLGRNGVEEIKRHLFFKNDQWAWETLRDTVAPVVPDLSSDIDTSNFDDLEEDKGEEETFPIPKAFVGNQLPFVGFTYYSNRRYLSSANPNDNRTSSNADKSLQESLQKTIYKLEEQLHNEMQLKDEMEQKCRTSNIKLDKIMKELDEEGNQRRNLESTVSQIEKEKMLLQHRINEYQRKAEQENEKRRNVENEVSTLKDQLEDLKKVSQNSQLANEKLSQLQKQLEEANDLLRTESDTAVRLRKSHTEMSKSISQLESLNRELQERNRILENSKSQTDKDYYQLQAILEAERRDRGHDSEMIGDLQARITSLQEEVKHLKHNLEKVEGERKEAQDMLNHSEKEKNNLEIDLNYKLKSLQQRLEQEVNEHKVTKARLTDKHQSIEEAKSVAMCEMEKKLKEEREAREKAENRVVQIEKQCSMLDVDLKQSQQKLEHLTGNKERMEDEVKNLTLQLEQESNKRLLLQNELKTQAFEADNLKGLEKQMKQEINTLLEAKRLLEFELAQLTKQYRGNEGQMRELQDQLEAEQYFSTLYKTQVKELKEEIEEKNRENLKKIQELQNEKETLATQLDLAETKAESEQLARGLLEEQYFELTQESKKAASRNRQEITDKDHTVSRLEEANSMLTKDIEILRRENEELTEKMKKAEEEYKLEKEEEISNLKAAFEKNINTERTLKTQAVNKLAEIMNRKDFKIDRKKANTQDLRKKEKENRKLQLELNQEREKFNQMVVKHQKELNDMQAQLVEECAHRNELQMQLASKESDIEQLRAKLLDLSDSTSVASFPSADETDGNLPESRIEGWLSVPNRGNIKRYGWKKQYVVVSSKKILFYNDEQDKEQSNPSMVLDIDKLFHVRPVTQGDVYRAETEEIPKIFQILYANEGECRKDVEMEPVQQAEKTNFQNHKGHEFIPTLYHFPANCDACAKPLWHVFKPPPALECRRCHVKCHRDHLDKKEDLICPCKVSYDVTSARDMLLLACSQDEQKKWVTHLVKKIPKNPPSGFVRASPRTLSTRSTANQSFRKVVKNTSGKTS

MST3 = target: T35, MST3 (Homo sapiens, UniProt Q9Y6E0); details: read-out: Percent Control
T35 construct: purchased Eurofins DiscoverX KINOMEscan

SLK = target: T36, SLK (Homo sapiens, UniProt Q9H2G2); details: read-out: Percent Control
T36 construct: purchased Eurofins DiscoverX KINOMEscan

LATS2 = target: T37, LATS2 (Homo sapiens, UniProt Q9NRM7); details: read-out: Percent Control
T37 construct: purchased Eurofins DiscoverX KINOMEscan

MAP4K2 = target: T38, MAP4K2 (Homo sapiens, UniProt Q12851); details: read-out: Percent Control
T38 construct: purchased Eurofins DiscoverX KINOMEscan

TGFBR1 = target: T39, TGFBR1 (Homo sapiens, UniProt P36897); details: read-out: Percent Control
T39 construct: purchased Eurofins DiscoverX KINOMEscan

PRKX = target: T40, PRKX (Homo sapiens, UniProt P51817); details: read-out: Percent Control
T40 construct: purchased Eurofins DiscoverX KINOMEscan
T40 sequence (P51817 whole entry): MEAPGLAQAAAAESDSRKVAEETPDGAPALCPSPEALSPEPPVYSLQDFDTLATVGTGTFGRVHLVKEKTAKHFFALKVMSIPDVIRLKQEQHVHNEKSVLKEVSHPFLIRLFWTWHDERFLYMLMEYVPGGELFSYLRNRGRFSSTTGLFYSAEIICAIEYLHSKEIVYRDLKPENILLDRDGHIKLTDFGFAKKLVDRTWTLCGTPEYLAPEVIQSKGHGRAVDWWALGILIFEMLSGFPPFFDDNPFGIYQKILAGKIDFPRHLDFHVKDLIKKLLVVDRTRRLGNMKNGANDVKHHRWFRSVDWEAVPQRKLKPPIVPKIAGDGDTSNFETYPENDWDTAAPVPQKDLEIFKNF

PIK3C2B = target: T41, PIK3C2B (Homo sapiens, UniProt O00750); details: read-out: Percent Control
T41 construct: purchased Eurofins DiscoverX KINOMEscan

HASPIN = target: T42, HASPIN (Homo sapiens, UniProt Q8TF76); details: read-out: Percent Control
T42 construct: purchased Eurofins DiscoverX KINOMEscan

MAK = target: T43, MAK (Homo sapiens, UniProt P20794); details: read-out: Percent Control
T43 construct: purchased Eurofins DiscoverX KINOMEscan

NEK11 = target: T44, NEK11 (Homo sapiens, UniProt Q8NG66); details: read-out: Percent Control
T44 construct: purchased Eurofins DiscoverX KINOMEscan

PKN2 = target: T45, PKN2 (Homo sapiens, UniProt Q16513); details: read-out: Percent Control
T45 construct: purchased Eurofins DiscoverX KINOMEscan
T45 sequence (Q16513 whole entry): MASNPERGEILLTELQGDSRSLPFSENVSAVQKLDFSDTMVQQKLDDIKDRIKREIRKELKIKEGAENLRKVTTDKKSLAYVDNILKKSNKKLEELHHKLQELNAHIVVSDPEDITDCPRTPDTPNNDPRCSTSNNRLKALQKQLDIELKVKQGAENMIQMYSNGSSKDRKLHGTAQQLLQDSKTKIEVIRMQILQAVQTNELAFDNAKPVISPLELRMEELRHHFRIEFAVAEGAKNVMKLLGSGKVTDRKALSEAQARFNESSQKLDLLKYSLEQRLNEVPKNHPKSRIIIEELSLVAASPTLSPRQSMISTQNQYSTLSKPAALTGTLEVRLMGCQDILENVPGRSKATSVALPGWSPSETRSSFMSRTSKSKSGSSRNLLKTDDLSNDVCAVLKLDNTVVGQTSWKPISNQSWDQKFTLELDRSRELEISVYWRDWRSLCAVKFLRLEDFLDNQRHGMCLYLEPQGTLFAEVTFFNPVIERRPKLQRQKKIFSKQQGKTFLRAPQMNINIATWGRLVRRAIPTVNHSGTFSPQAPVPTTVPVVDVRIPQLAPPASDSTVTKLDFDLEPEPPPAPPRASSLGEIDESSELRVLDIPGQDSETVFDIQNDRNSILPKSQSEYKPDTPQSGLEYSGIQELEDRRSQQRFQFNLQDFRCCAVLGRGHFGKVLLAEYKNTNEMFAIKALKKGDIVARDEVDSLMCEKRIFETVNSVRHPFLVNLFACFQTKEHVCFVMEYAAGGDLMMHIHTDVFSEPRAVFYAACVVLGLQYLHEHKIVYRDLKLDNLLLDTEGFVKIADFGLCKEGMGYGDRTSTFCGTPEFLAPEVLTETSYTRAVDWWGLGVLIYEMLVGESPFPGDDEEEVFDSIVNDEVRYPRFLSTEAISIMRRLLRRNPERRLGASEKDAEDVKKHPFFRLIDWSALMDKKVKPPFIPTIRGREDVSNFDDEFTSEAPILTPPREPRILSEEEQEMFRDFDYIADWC

CC(C)NC(=O)COc1cccc(-c2nc(Nc3ccc4[nH]ncc4c3)c3ccccc3n2)c1 [KD025, 2-(3-(4-((1H-indazol-5-yl)amino)quinazolin-2-yl)phenoxy)-N-isopropylacetamide]
remaining binding at 10 µM (DMPK): 97% | remaining binding at 10 µM (FLT3(R834Q)): 69% | remaining binding at 10 µM (PFTAIRE2): 52% | remaining binding at 10 µM (CDK4-cyclinD1): 89% | remaining binding at 10 µM (PRKCQ): 41% | remaining binding at 10 µM (p38-beta): 93% | remaining binding at 10 µM (DMPK2): 3.9% | remaining binding at 10 µM (AXL): 66% | remaining binding at 10 µM (ZAP70): 63% | remaining binding at 10 µM (MYLK4): 17% | remaining binding at 10 µM (PIM3): 63% | remaining binding at 10 µM (CDC2L1): 98% | remaining binding at 10 µM [1]: 49% | remaining binding at 10 µM (PRKD1): 72% | remaining binding at 10 µM (CSNK1A1L): 89% | remaining binding at 10 µM (CASK): 70% | remaining binding at 10 µM (PIP5K1C): 47% | remaining binding at 10 µM (BUB1): 69% | remaining binding at 10 µM (MAP3K2): 95% | remaining binding at 10 µM (HIPK3): 100% | remaining binding at 10 µM (TESK1): 73% | remaining binding at 10 µM (PRKG1): 100% | remaining binding at 10 µM (MLK2): 100% | remaining binding at 10 µM (FGFR1): 95% | remaining binding at 10 µM [2]: 93% | remaining binding at 10 µM (GRK3): 84% | remaining binding at 10 µM (SgK110): 100% | remaining binding at 10 µM (MKK7): 73% | remaining binding at 10 µM (CSNK2A2): 0.5% | remaining binding at 10 µM (DRAK2): 85% | remaining binding at 10 µM (CSNK1G3): 100% | remaining binding at 10 µM (MLCK): 100% | remaining binding at 10 µM (DLK): 58% | ROCK1 vs. ROCK2 in POC (ROCK1; 10 μM): 900 fold | remaining binding at 10 µM (ROCK1; ROCK1, read-out: Percent Control): 45% | remaining binding at 10 µM (MST3): 72% | remaining binding at 10 µM (SLK): 59% | remaining binding at 10 µM (LATS2): 48% | remaining binding at 10 µM (MAP4K2): 80% | remaining binding at 10 µM (TGFBR1): 59% | remaining binding at 10 µM (PRKX): 81% | remaining binding at 10 µM (PIK3C2B): 67% | remaining binding at 10 µM (HASPIN): 77% | remaining binding at 10 µM (MAK): 84% | remaining binding at 10 µM (NEK11): 99% | remaining binding at 10 µM (PKN2): 84%
